Patent publication US20250034136A1 (Nimbus Wadjet, Inc., priority 2023, published 2025)

Legend:
[1] = system: p21 induction in HCT116 cells; assay: p21 induction in HCT116 cells; format: cell-based; conditions: Homo sapiens, HCT-116, 24 h, HCT116 cells, 24 h compound incubation; read-out: P21_EC50
Summary of the method: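 EC50 from non-linear curve fit of p21 immunofluorescence (800 nm), with GAPDH (700 nm) read alongside. DMSO and a reference WRN inhibitor served as low and high controls. Cells (2,000/well) got 11 compound concentrations in duplicate for 24 h at 37 °C.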

[2] = target: WRN (BV08), human Werner helicase (Uniprot Q14191, amino acids 517-1235 with L1074F point mutation) (Homo sapiens (Human), UniProt Q14191, L1074F); assay: WRN (BV08) ADP-Glo assay; format: biochemical; conditions: class symbols A-E, read-out: ADP-Glo_hWRN_IC50
Chain of WRN (BV08), human Werner helicase (Uniprot Q14191, amino acids 517-1235 with L1074F point mutation) (Q14191 other isoform, or with tags, fused parts or gaps L1074F (already in the parent)): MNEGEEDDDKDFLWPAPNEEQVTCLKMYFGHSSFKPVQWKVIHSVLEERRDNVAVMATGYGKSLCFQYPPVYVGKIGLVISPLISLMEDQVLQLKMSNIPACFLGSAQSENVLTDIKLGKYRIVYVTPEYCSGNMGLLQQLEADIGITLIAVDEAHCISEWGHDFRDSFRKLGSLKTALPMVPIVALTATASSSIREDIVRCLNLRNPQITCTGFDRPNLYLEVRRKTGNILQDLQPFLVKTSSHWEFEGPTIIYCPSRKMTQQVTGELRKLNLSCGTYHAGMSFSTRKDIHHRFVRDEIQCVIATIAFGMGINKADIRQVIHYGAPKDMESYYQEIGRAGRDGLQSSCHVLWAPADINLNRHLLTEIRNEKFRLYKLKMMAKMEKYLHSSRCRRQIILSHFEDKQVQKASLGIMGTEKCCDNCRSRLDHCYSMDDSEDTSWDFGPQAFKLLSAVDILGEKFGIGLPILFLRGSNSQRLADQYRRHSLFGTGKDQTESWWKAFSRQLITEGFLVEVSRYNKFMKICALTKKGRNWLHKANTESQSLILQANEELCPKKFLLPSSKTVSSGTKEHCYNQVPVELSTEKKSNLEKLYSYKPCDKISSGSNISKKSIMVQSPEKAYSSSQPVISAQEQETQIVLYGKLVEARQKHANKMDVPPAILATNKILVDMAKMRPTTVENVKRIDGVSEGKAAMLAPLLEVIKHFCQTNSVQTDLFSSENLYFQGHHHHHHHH

Row | Compound | EC50 [1] | IC50 [2]
1 | CCOc1ncc(C)c(O)c1C(=O)N1CCN(c2c(CC)n(CC(=O)Nc3ccc(C(F)(F)F)cc3Cl)c3ncc(N(C)C)nc3c2=O)[C@H]2CC[C@@H]21 [I-275, N-[2-chloro-4-(trifluoromethyl)phenyl]-2-[2-(dimethylamino)-7-[(1S,6S)-5-(2-ethoxy-4-hydroxy-5-methylpyridine-3-carbonyl)-2,5-diazabicyclo[4.2.0]octan-2-yl]-6-ethyl-8-oxo-5H,8H-pyrido[2,3-b]pyrazin-5-yl]acetamide] | < 500 nM | 5 to 50 nM
2 | CCc1c(N2CCN(C(=O)c3c(OC)ncc(C(F)F)c3O)[C@H]3CC[C@@H]32)c(=O)c2nc(N(C)C)cnc2n1CC(=O)Nc1ccc(C(F)(F)F)cc1Cl [I-280, N-[2-chloro-4-(trifluoromethyl)phenyl]-2-{7-[(1S,6S)-5-[5-(difluoromethyl)-4-hydroxy-2-methoxypyridine-3-carbonyl]-2,5-diazabicyclo[4.2.0]octan-2-yl]-2-(dimethylamino)-6-ethyl-8-oxo-5H,8H-pyrido[2,3-b]pyrazin-5-yl}acetamide] | > 5000 nM | 5 to 50 nM
3 | CCc1c(N2CCN(C(=O)c3c(OC(F)F)ncc(C)c3O)[C@H]3CC[C@@H]32)c(=O)c2nc(N(C)C)cnc2n1CC(=O)Nc1ccc(C(F)(F)F)cc1Cl [I-281, N-[2-chloro-4-(trifluoromethyl)phenyl]-2-{7-[(1S,6S)-5-[2-(difluoromethoxy)-4-hydroxy-5-methylpyridine-3-carbonyl]-2,5-diazabicyclo[4.2.0]octan-2-yl]-2-(dimethylamino)-6-ethyl-8-oxo-5H,8H-pyrido[2,3-b]pyrazin-5-yl}acetamide] | < 500 nM | 5 to 50 nM
4 | CCc1c(N2CCN(C(=O)c3c(OCCOC)ncc(C)c3O)[C@H]3CC[C@@H]32)c(=O)c2nc(N(C)C)cnc2n1CC(=O)Nc1ccc(C(F)(F)F)cc1Cl [I-282, N-[2-chloro-4-(trifluoromethyl)phenyl]-2-[2-(dimethylamino)-6-ethyl-7-[(1S,6S)-5-[4-hydroxy-2-(2-methoxyethoxy)-5-methylpyridine-3-carbonyl]-2,5-diazabicyclo[4.2.0]octan-2-yl]-8-oxo-5H,8H-pyrido[2,3-b]pyrazin-5-yl]acetamide] | < 500 nM | 5 to 50 nM
5 | CCc1c(N2CCN(C(=O)c3c(OC)ncc(C4CC4)c3O)[C@H]3CC[C@@H]32)c(=O)c2nc(N(C)C)cnc2n1CC(=O)Nc1ccc(C(F)(F)F)cc1Cl [I-286, N-[2-chloro-4-(trifluoromethyl)phenyl]-2-{7-[(1S,6S)-5-(5-cyclopropyl-4-hydroxy-2-methoxypyridine-3-carbonyl)-2,5-diazabicyclo[4.2.0]octan-2-yl]-2-(dimethylamino)-6-ethyl-8-oxo-5H,8H-pyrido[2,3-b]pyrazin-5-yl} acetamide] | < 500 nM | 5 to 50 nM
6 | CCc1c(N2CCN(C(=O)c3c(OC)ncc(C4CCOC4)c3O)[C@H]3CC[C@@H]32)c(=O)c2nc(N(C)C)cnc2n1CC(=O)Nc1ccc(C(F)(F)F)cc1Cl (stereo partly drawn) [I-287, N-[2-chloro-4-(trifluoromethyl)phenyl]-2-[2-(dimethylamino)-6-ethyl-7-[(1S,6S)-5-[4-hydroxy-2-methoxy-5-(oxolan-3-yl)pyridine-3-carbonyl]-2,5-diazabicyclo[4.2.0]octan-2-yl]-8-oxo-5H,8H-pyrido[2,3-b]pyrazin-5-yl]acetamide] | < 500 nM | 5 to 50 nM
7 | CCc1c(N2CCN(C(=O)c3c(OC)ncc(COC)c3O)[C@H]3CC[C@@H]32)c(=O)c2nc(N(C)C)cnc2n1CC(=O)Nc1ccc(C(F)(F)F)cc1Cl [I-292, N-[2-chloro-4-(trifluoromethyl)phenyl]-2-[2-(dimethylamino)-6-ethyl-7-[(1S,6S)-5-[4-hydroxy-2-methoxy-5-(methoxymethyl)pyridine-3-carbonyl]-2,5-diazabicyclo[4.2.0]octan-2-yl]-8-oxo-5H,8H-pyrido[2,3-b]pyrazin-5-yl]acetamide] | > 5000 nM | 5 to 50 nM

Now from value to compound:

Row | EC50 [1] | IC50 [2] | Compound
8 | < 500 nM | ≤ 5 nM | CCc1c(N2CCN(C(=O)c3ncnc(C)c3O)[C@H]3CC[C@@H]32)c(=O)c2nc(-c3ccnc(OC)c3)cnc2n1CC(=O)Nc1ccc(C(F)(F)F)cc1Cl [I-283, N-[2-chloro-4-(trifluoromethyl)phenyl]-2-{6-ethyl-7-[(1S,6S)-5-(5-hydroxy-6-methylpyrimidine-4-carbonyl)-2,5-diazabicyclo[4.2.0]octan-2-yl]-2-(2-methoxypyridin-4-yl)-8-oxo-5H,8H-pyrido[2,3-b]pyrazin-5-yl}acetamide]
9 | < 500 nM | 5 to 50 nM | CCc1c(N2CCN(C(=O)c3ncnc(C)c3O)[C@H]3CC[C@@H]32)c(=O)c2nc(C3=CCOCC3)cnc2n1CC(=O)Nc1ccc(C(F)(F)F)cc1Cl [I-284, N-[2-chloro-4-(trifluoromethyl)phenyl]-2-[2-(3,6-dihydro-2H-pyran-4-yl)-6-ethyl-7-[(1S,6S)-5-(5-hydroxy-6-methylpyrimidine-4-carbonyl)-2,5-diazabicyclo[4.2.0]octan-2-yl]-8-oxo-5H,8H-pyrido[2,3-b]pyrazin-5-yl]acetamide]
10 | 500 to 2000 nM | 5 to 50 nM | CCc1c(N2CCN(C(=O)c3ncnc(C)c3O)[C@H]3CC[C@@H]32)c(=O)c2nc(CN3CCOCC3)cnc2n1CC(=O)Nc1ccc(C(F)(F)F)cc1Cl [I-285, N-[2-chloro-4-(trifluoromethyl)phenyl]-2-{6-ethyl-7-[(1S,6S)-5-(5-hydroxy-6-methylpyrimidine-4-carbonyl)-2,5-diazabicyclo[4.2.0]octan-2-yl]-2-[(morpholin-4-yl)methyl]-8-oxo-5H,8H-pyrido[2,3-b]pyrazin-5-yl}acetamide]
11 | < 500 nM | 5 to 50 nM | CCc1c(N2CCN(C(=O)c3ncnc(C)c3O)[C@H]3CC[C@@H]32)c(=O)c2nc(N(C)C3CCC(O)C3)cnc2n1CC(=O)Nc1ccc(C(F)(F)F)cc1Cl (stereo partly drawn) [I-288, N-[2-chloro-4-(trifluoromethyl)phenyl]-2-{6-ethyl-7-[(1S,6S)-5-(5-hydroxy-6-methylpyrimidine-4-carbonyl)-2,5-diazabicyclo[4.2.0]octan-2-yl]-2-[(3-hydroxycyclopentyl)(methyl)amino]-8-oxo-5H,8H-pyrido[2,3-b]pyrazin-5-yl}acetamide]
12 | 500 to 2000 nM | 5 to 50 nM | CCc1c(N2CCN(C(=O)c3ncnc(C)c3O)[C@H]3CC[C@@H]32)c(=O)c2nc(N(C)C)cnc2n1CC(=O)Nc1ccc(OC)cc1Cl [I-289, N-(2-chloro-4-methoxyphenyl)-2-[2-(dimethylamino)-6-ethyl-7-[(1S,6S)-5-(5-hydroxy-6-methylpyrimidine-4-carbonyl)-2,5-diazabicyclo[4.2.0]octan-2-yl]-8-oxo-5H,8H-pyrido[2,3-b]pyrazin-5-yl]acetamide]
13 | < 500 nM | 5 to 50 nM | CCc1c(N2CCN(C(=O)c3ncnc(C)c3O)[C@H]3CC[C@@H]32)c(=O)c2nc(N3CCC4(COC4)C3)cnc2n1CC(=O)Nc1ccc(C(F)(F)F)cc1Cl [I-290, N-[2-chloro-4-(trifluoromethyl)phenyl]-2-{6-ethyl-7-[(1S,6S)-5-(5-hydroxy-6-methylpyrimidine-4-carbonyl)-2,5-diazabicyclo[4.2.0]octan-2-yl]-2-{2-oxa-6-azaspiro[3.4]octan-6-yl}-8-oxo-5H,8H-pyrido[2,3-b]pyrazin-5-yl}acetamide]
